Experimental data published in patent publication US20120276208A1, “ACUTE COGNITIVE AND MOOD EFFECTS OF PLANT POLYSACCHARIDES IN ADULT HUMAN SUBJECTS” (UNIVERSITY OF SOUTH AUSTRALIA, priority 2011, published 2012).

How the values were obtained:
[1] = system: healthy middle-aged men and women; experiment: Rey Auditory-Verbal Learning Test (RAVLT), learning and memory; type: in vivo, human; conditions: 4 g oral single dose; mean (SD)
Procedure: Procedure: Each participant attended the research facility on a single day for a period of 3.5 hours during which they completed 2 testing sessions, 1 baseline test and 1 post-treatment test. All testing took place between 08:00-12:00 and 13:00-18:00. On testing days, participants abstained from consuming any stimulants (i.e., tea, coffee, other caffeine containing products) for 2 hours before their visit. All volunteers were fasted for 2 hours before their visit. Each study day comprised of a practice module, a pre-treatment baseline testing session on the mood and cognitive measures, this was immediately followed by a pre-treatment blood glucose measurement, and administration of treatment. Participants were allocated, using a random number generator randomization code, to one of three treatment conditions: sucrose (icing sugar), placebo (rice flour) and plant saccharides (Ambrotose®Complex). Given the different densities of the three supplement conditions, each treatment was weighed and measured with scoop amounts to provide equated 4 g doses. The supplement was delivered to each participant on a tablespoon with 100 ml of water. Each participant was instructed by the inventors to carefully consume the powder, without breathing in or out over it, by putting it in their mouth and washing it down with the water provided within 5 minutes. Additional water was provided on request. Participants were then instructed to rest for 30 minutes to allow for absorption. Following the 30 minute absorption time, a finger-capillary blood glucose measurement was taken. The post treatment testing session then commenced with alternate forms of the RAVLT and Cognitive demand battery. Following completion of the testing session, a final blood glucose measurement was taken. […] Learning and Memory: The Rey Auditory-Verbal Learning Test (RAVLT) was used to assess immediate recall, delayed recall, learning and recognition memory. The examiner reads aloud 15 nouns (list A) over five trials and after each trial, participants are asked to recall, in any order, as many of the 15 words as possible. Scores for the 5 trials are summed to produce a measure of immediate recall, the difference between trial 5 and 1 is used as a measure of learning. After a sixth trial consisting of 15 different words (list B) participants are again required to recall the words that were presented in list A (trial 7), and then again after an interval of 60 minutes (trial 8). The scores from trials 7 and 8 are used to produce a measure of delayed recall, the difference between the words recalled in trials 8 and 7 is used as a measure of forgetting, the difference between trial 7 and trial 5 is used as a score of interference. After trial 8, participants are presented with a sheet of 50 words containing the words from lists A and B among 20 distracter words. Participants are asked to recognize the words from lists A and B and indicate the list they came from. Each word correctly identified is awarded one point producing a measure of recognition. Statistical Analysis: The primary outcomes were memory performance, mood and performance on the Cognitive Demand Battery (CDB) and the subjective ratings of mental fatigue. All data were analyzed using SPSS 17 statistical package as “change from pre dose baseline scores', using Analysis of Variance (ANOVA). To test for chance baseline differences which may have skewed change-from-baseline scores, prior to the primary statistical analysis, one-way ANOVA's with Bonferroni correction, were run all on all baseline demographics, general mood and well-being measures, and all pre-dose baseline measures to determine any potential covariates in outcomes.

[2] = system: healthy middle-aged men and women; experiment: Cognitive Demand Battery: Serial Sevens subtraction task; type: in vivo, human; conditions: 4 g oral; at 20 min of battery; vs placebo
Procedure: Procedure: Each participant attended the research facility on a single day for a period of 3.5 hours during which they completed 2 testing sessions, 1 baseline test and 1 post-treatment test. All testing took place between 08:00-12:00 and 13:00-18:00. On testing days, participants abstained from consuming any stimulants (i.e., tea, coffee, other caffeine containing products) for 2 hours before their visit. All volunteers were fasted for 2 hours before their visit. Each study day comprised of a practice module, a pre-treatment baseline testing session on the mood and cognitive measures, this was immediately followed by a pre-treatment blood glucose measurement, and administration of treatment. Participants were allocated, using a random number generator randomization code, to one of three treatment conditions: sucrose (icing sugar), placebo (rice flour) and plant saccharides (Ambrotose®Complex). Given the different densities of the three supplement conditions, each treatment was weighed and measured with scoop amounts to provide equated 4 g doses. The supplement was delivered to each participant on a tablespoon with 100 ml of water. […] All data were analyzed using SPSS 17 statistical package as “change from pre dose baseline scores', using Analysis of Variance (ANOVA). […]

OC[C@H]1O[C@@](CO)(O[C@H]2O[C@H](CO)[C@@H](O)[C@H](O)[C@H]2O)[C@@H](O)[C@@H]1O [Sucrose, sucrose]
RAVLT Forgetting (trial 8-trial7), post-dose change from baseline score [1]: −1.69 (3.06)
RAVLT Interference (trial 7-trial 5), post-dose change from baseline score [1]: −1.34 (2.18)
RAVLT Learning (trial 5-trial1), post-dose change from baseline score [1]: 0.07 (2.78)
RAVLT Recog A, post-dose change from baseline score [1]: −2.38 (2.46)
RAVLT Recog B, post-dose change from baseline score [1]: −3.38 (3.55)
RAVLT Sum Immediate Recall, post-dose change from baseline score [1]: −1.88 (5.83)
RAVLT Sum Recognition, post-dose change from baseline score [1]: −5.76 (4.91)
RAVLT Sum delayed recall, post-dose change from baseline score [1]: −4.76 (4.18)
RAVLT Trial 1, post-dose change from baseline score [1]: −0.26 (2.23)
RAVLT Trial 2, post-dose change from baseline score [1]: −0.57 (2.13)
RAVLT Trial 3, post-dose change from baseline score [1]: −0.42 (1.83)
RAVLT Trial4, post-dose change from baseline score [1]: −0.42 (1.72)
RAVLT Trial 5, post-dose change from baseline score [1]: −0.19 (1.72)
RAVLT Trial 6 (List B), post-dose change from baseline score [1]: −0.84 (2.16)
RAVLT Trial 7, post-dose change from baseline score [1]: −1.53 (2.37)
RAVLT Trial 8, post-dose change from baseline score [1]: −3.23 (2.80)
Serial 7s number of correct answers, pairwise comparison [2]: making significantly more correct responses than the placebo group (p=0.04)
